Source: patent US8835467B2, “SIR2 regulation” (Albert Einstein College of Medicine of Yeshiva University, priority 2003, dated 2014)
Values joined by “and” are separate entries in the source; they are usually repeats but may differ in a detail not shown here. Identical values can stand only once.

Experiments:
Bacterial SIR2Af2 [1] = molecular target: T1, Bacterial SIR2Af2 (Archaeoglobus fulgidus, UniProt O30124); assay: SIR2 deacetylation assay (p53 peptide, HPLC of ADPR and 3′-O-acetyl-ADPR); type: biochemical, Archeaglobus fulgidus
T1 construct: made in house
T1 sequence (O30124 1-253): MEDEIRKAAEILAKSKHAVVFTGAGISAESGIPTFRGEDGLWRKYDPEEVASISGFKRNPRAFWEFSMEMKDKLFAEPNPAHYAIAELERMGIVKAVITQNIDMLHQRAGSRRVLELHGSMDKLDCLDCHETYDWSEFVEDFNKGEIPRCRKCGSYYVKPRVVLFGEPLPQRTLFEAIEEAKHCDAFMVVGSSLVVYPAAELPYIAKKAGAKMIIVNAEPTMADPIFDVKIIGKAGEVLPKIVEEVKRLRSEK
Description: (§1) After 2 hours, aliquots of 10 μL removed at 0, 30, 60, 90 and 120 min. Each aliquot was combined with 50 μL 50 mM ammonium acetate pH 5.0 to quench and assayed by HPLC for deacetylation products and NAD^+. The chromatograms (260 nm) were obtained using 50 mM ammonium acetate pH 5.0 as eluant on a semi-preparative Waters C-18 column (2.0 mL/min flow rate). Peaks for ADPR and 3′-O-Acetyl-ADPR were quantified by integration. The peak for NAD^+ was collected and radiation counted. […] Plots of deacetylation rate versus nicotinamide were fit to the equations described in the text.
(§2) Reactions were as above but base reactions contained 5 mM of pyrazinamide, isonicotinamide, thionicotinamide, or benzamide. Reactions were carried out (2 hours for AF2 and yeast enzymes and 3 hours for mouse enzyme) at 37° C. and quenched by addition of 80 μL 50 mM ammonium acetate pH 5.0. Product formation was quantified by HPLC. Thionicotinamide-NAD^+ was synthesized by CD38. Rates were compared with controls lacking added base.

Yeast SIR2p [2] = molecular target: T2, Yeast SIR2p (Saccharomyces cerevisiae, UniProt P06700); assay: as above; type: biochemical
T2 construct: made in house
T2 sequence (P06700 whole entry): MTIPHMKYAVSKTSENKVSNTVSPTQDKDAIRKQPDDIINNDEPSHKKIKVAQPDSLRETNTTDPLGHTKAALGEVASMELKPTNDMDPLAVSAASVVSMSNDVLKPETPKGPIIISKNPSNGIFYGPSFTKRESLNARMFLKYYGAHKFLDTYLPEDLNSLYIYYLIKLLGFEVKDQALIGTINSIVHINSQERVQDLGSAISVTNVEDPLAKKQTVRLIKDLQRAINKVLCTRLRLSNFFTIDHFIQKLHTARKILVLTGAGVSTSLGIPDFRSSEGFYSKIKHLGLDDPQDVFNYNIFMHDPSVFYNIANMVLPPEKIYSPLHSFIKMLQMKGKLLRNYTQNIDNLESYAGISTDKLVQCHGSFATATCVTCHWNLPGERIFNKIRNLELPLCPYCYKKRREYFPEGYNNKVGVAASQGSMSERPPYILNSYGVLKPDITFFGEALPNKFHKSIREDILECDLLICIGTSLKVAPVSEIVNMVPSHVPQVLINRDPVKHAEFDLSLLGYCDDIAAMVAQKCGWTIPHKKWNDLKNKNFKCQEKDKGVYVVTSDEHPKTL
Description: (§3) After 2 hours, aliquots of 10 μL removed at 0, 30, 60, 90 and 120 min. Each aliquot was combined with 50 μL 50 mM ammonium acetate pH 5.0 to quench and assayed by HPLC for deacetylation products and NAD^+. The chromatograms (260 nm) were obtained using 50 mM ammonium acetate pH 5.0 as eluant on a semi-preparative Waters C-18 column (2.0 mL/min flow rate). Peaks for ADPR and 3′-O-Acetyl-ADPR were quantified by integration. The peak for NAD^+ was collected and radiation counted.
as §2, with “Thionicotinamide-NAD^+ was synthesized by CD38.” left out

[3] = molecular target: T3, Mouse SIR2 enzyme (SIR2α) (Mus musculus, UniProt Q923E4); assay: as above; type: biochemical
T3 construct: purchased Upstate Group
T3 sequence (Q923E4 1-737): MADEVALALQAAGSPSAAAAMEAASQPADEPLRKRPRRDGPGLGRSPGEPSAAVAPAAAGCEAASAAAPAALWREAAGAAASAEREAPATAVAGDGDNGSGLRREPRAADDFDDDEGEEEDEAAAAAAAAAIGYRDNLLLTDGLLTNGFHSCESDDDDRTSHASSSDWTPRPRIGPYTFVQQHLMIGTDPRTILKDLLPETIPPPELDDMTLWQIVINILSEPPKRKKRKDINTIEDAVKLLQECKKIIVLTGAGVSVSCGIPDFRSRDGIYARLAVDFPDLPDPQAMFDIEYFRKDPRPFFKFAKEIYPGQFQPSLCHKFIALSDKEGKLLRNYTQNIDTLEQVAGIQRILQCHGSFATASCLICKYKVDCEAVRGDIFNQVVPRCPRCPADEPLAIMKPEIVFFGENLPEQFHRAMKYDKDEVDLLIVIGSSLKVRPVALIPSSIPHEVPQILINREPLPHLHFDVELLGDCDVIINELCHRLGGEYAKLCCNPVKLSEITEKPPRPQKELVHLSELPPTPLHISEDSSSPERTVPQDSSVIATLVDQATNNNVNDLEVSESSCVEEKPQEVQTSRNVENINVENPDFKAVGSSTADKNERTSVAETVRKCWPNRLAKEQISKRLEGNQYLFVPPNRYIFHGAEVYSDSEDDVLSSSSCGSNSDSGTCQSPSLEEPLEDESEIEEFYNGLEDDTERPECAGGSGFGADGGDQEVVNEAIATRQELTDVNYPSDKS
Description: as §3
as §2, with “Thionicotinamide-NAD^+ was synthesized by CD38.” left out

[4] = test system: Sir2-dependent transcriptional silencing at the silent mating-type loci (HMR, HML); assay: Silent mating-type locus reporter silencing, spot assay; type: cell-based, yeast
Description: The photographs were taken after 2 to 3 days incubation. […] Isogenic strains UCC4562 (DOT1) and UCC4554 (dot1Δ) (Singer et al., 1998) are shown in each panel (top and bottom rows, respectively). […] The phenotype of strain CCFY10028 (top row) is compared to an isogenic sir2 derivative (bottom row). The sir2 deletion strain was generated by PCR-mediated gene disruption using a Nat-MX selectable marker (Tong et al., 2004).
The deletion strains were generated by PCR-mediated gene disruption using a Nat-MX selectable marker (Tong et al., 2004). Silencing at TEL-VR::URA3 is reported by survival on FOA-containing media and at HMR::TRP1 is detected by reduced growth on media lacking tryptophan.
The effect of isonicotinamide on Sir2 activity at the silent mating-type loci was measured in an HMR: TRP1 strain by growth on medium lacking tryptophan (FIG. 8b). Silencing of TRP1 decreases growth on Trp^− media.

Yeast SIR2p [5] = molecular target: T2, Yeast SIR2p; assay: SIR2 nicotinamide base-exchange assay (p53 peptide, HPLC/14C); type: biochemical; design: kcat (exchange): dose or concentration left out as unconfirmed
Description: as §3

[6] = molecular target: T3, Mouse SIR2 enzyme (SIR2α); assay: as above; type: biochemical; design: kcat (exchange): dose or concentration left out as unconfirmed
Description: as §3

Bacterial SIR2Af2 [7] = molecular target: T1, Bacterial SIR2Af2; assay: as above; type: biochemical, Archeaglobus fulgidus; design: kcat (exchange): dose or concentration left out as unconfirmed
Description: as §1

Yeast Sir2 = Yeast Sir2 (Saccharomyces cerevisiae, UniProt P06700); assay: Sir2 catalyzed deacetylation of H4 N-terminal peptide; type: biochemical; details: Ki, apparent nicotinamide inhibition constant (deacetylation)
Sequence of Yeast Sir2 (P06700 whole entry): as the sequence (P06700 whole entry) above
Description: Measurements were performed by methods described in Sauve and Schramm (2003) with the H4N-terminal peptide (AGG(AcK)GG(AcK)GMG(AcK)VGA(AcK)RHSC) (Imai et al., 2000) as substrate.

Af2Sir2 (archaean) [8] = molecular target: T4, Af2Sir2 (archaean) (Archaeoglobus fulgidus, UniProt O30124); assay: biochemical
T4 sequence (O30124 1-253): T1 sequence (O30124 1-253)
Description: (§4) NAD^+ in 50 μL 50 mM potassium phosphate pH 7.0. Each solution also contained a variable amount of 2-Fluoronicotinamide with concentrations of 0, 5, 10, 20, 40 and 80 mM of the compound. […] Deacetylation was assayed by integration of the peaks for AADPR and ADPR in reaction mixtures.

Sir2p (yeast) [9] = molecular target: T5, Sir2p (yeast) (Saccharomyces cerevisiae, UniProt P06700); assay: HPLC assay of deacetylation, histone H4 substrate (Example 3); type: biochemical; details: Yeast enzyme
T5 sequence (P06700 whole entry): as the sequence (P06700 whole entry) above

Sir2p (yeast) [10] = molecular target: T5, Sir2p (yeast); assay: HPLC assay of base exchange, histone H4 substrate (Example 3); type: biochemical; details: for % rate (base exchange) / Cpm/sample (radioactivity in NAD peak): Yeast enzyme
Af2Sir2 (archaean) [11] = molecular target: T4, Af2Sir2 (archaean); assay: HPLC assay of deacetylation, histone H4 substrate (Example 3); type: biochemical; details: Archaea enzyme
Description: as §4

Af2Sir2 (archaean) [12] = molecular target: T4, Af2Sir2 (archaean); assay: HPLC assay of base exchange, histone H4 substrate (Example 3); details: Archaea enzyme
Description: as §4

## NC(=O)c1ccccc1 [Benzamide]
Bacterial SIR2Af2 [1]
  inhibition at 5000 µM: 5%
Yeast SIR2p [2]
  inhibition at 5000 µM: 0%
[3]
  inhibition at 5000 µM: 44%

## NC(=O)c1cccnc1 [nicotinamide]
[4]; HMR::TRP1, Trp− medium
  growth phenotype of isogenic sir2Δ strain: Neither compound altered the growth phenotype
[4]; HMR::TRP1 strain, 5 mM nicotinamide
  growth on Trp− medium: increased growth
Bacterial SIR2Af2 [1]
  Ki: 26 ± 4 µM
Bacterial SIR2Af2 [1]; bacterial SIR2, saturation of the nicotinamide site
  intermediate returned to acetylated protein: 21%
Bacterial SIR2Af2 [1]; bacterial enzyme, high (>10 Ki) nicotinamide
  reduction of deacetylation rate by nicotinamide: 21%
Bacterial SIR2Af2 [1]; bacterial enzyme, in the presence of 2 mM nicotinamide
  kinh (deacetylation), residual deacetylation rate: 1.4 ± 0.2 min⁻¹
Yeast SIR2p [2]
  Ki: 120 ± 25 µM
Yeast SIR2p [2]; yeast SIR2, saturation of the nicotinamide site
  intermediate returned to acetylated protein: 65%
Yeast SIR2p [2]; yeast enzyme, high (millimolar) nicotinamide
  reduction of deacetylation rate by nicotinamide: 65%
Yeast SIR2p [2]; yeast enzyme, in the presence of 2 mM nicotinamide
  kinh (deacetylation), residual deacetylation rate: 0.60 ± 0.08 min⁻¹
[3]
  Ki: 160 µM
[3]; mouse SIR2, saturation of the nicotinamide site
  intermediate returned to acetylated protein: 95%
[3]; mouse enzyme, high nicotinamide concentrations
  inhibition of deacetylation by nicotinamide: > 95% and 95%
[3]; mouse enzyme, in the presence of 2 mM nicotinamide
  kinh (deacetylation), residual deacetylation rate: 0.014 ± 0.002 min⁻¹
Yeast SIR2p [5]
  Ki: > 8000 µM
Yeast SIR2p [5]; yeast enzyme, from nicotinamide saturation curves, pH 7.8
  kcat (exchange): 0.0967 ± 0.0067 s⁻¹
[6]
  Ki: > 8000 µM
[6]; mouse enzyme, from nicotinamide saturation curves, pH 7.8
  kcat (exchange): 0.05 ± 0.0033 s⁻¹
Bacterial SIR2Af2 [7]
  Ki: > 8000 µM
Bacterial SIR2Af2 [7]; bacterial enzyme, from nicotinamide saturation curves, pH 7.8
  kcat (exchange): 0.00583 ± 0.00067 s⁻¹
Yeast Sir2; 0 mM isonicotinamide
  Ki: 100 µM
Yeast Sir2; 60 mM isonicotinamide
  Ki: 180 µM
Yeast Sir2; 100 mM isonicotinamide
  Ki: 330 µM

## NC(=O)c1cccnc1F
Af2Sir2 (archaean) [8]
  Ki: 43000 µM
Sir2p (yeast) [9]; 5 mM
  % rate (deacetylation): 100%
Sir2p (yeast) [9]; 10 mM
  % rate (deacetylation): 97%
Sir2p (yeast) [9]; 20 mM
  % rate (deacetylation): 100%
Sir2p (yeast) [9]; 40 mM
  % rate (deacetylation): 95%
Sir2p (yeast) [9]; 80 mM
  % rate (deacetylation): 95%
Sir2p (yeast) [10]
  Ki: 20000 µM
Sir2p (yeast) [10]; 5 mM
  % rate (base exchange): 76%
  Cpm/sample (radioactivity in NAD peak): 24,500 Cpm/sample
Sir2p (yeast) [10]; 10 mM
  % rate (base exchange): 58%
  Cpm/sample (radioactivity in NAD peak): 18,800 Cpm/sample
Sir2p (yeast) [10]; 20 mM
  % rate (base exchange): 47%
  Cpm/sample (radioactivity in NAD peak): 15,200 Cpm/sample
Sir2p (yeast) [10]; 40 mM
  % rate (base exchange): 36%
  Cpm/sample (radioactivity in NAD peak): 11,600 Cpm/sample
Sir2p (yeast) [10]; 80 mM
  % rate (base exchange): 28%
  Cpm/sample (radioactivity in NAD peak): 9,000 Cpm/sample
Af2Sir2 (archaean) [11]; 5 mM
  % rate (deacetylation): 100%
Af2Sir2 (archaean) [11]; 10 mM
  % rate (deacetylation): 100%
Af2Sir2 (archaean) [11]; 20 mM
  % rate (deacetylation): 100%
Af2Sir2 (archaean) [11]; 40 mM
  % rate (deacetylation): 100%
Af2Sir2 (archaean) [11]; 80 mM
  % rate (deacetylation): 100%
Af2Sir2 (archaean) [12]; 5 mM
  % rate (base exchange): 91%
  Cpm/sample (radioactivity in NAD peak): 18,200 Cpm/sample
Af2Sir2 (archaean) [12]; 10 mM
  % rate (base exchange): 80%
  Cpm/sample (radioactivity in NAD peak): 16,100 Cpm/sample
Af2Sir2 (archaean) [12]; 20 mM
  % rate (base exchange): 73%
  Cpm/sample (radioactivity in NAD peak): 14,600 Cpm/sample
Af2Sir2 (archaean) [12]; 40 mM
  % rate (base exchange): 50%
  Cpm/sample (radioactivity in NAD peak): 10,300 Cpm/sample
Af2Sir2 (archaean) [12]; 80 mM
  % rate (base exchange): 35%
  Cpm/sample (radioactivity in NAD peak): 7,000 Cpm/sample

## NC(=O)c1cnccn1 [Pyrazinamide]
Bacterial SIR2Af2 [1]
  inhibition at 5000 µM: 4%
Yeast SIR2p [2]
  inhibition at 5000 µM: 1%
[3]
  inhibition at 5000 µM: 1%

## NC(=S)c1cccnc1 [Thionicotinamide]
Bacterial SIR2Af2 [1]
  inhibition at 5000 µM: 4%
Yeast SIR2p [2]
  inhibition at 5000 µM: 15%
[3]
  inhibition at 5000 µM: 16%
